# Patent publication US20200316159A1, “SUSTAINED RELEASE COMPOSITIONS OF KAPPA-OPIOID RECEPTOR AGONIST” (JT PHARMACEUTICALS, INC., priority 2016, published 2020)
# Non-standard residues stand in square brackets, D forms with d. Residues, ends and D or L forms follow the SMILES beside them. *: point of attachment. NH(4-picolyl) = c1cc(CN*)ccn1; dNle = CCCC[C@@H](N)C(=O)O
# Assays:
# kappa opioid receptor = kappa opioid receptor (Homo sapiens, UniProt P41145); assay: Opioid receptor activation assay, DiscoveRx PathHunter Beta-Arrestin, kappa; format: cell-based; settings: PathHunter Beta-Arrestin; for EC50: 3-6 repeats, read-out: 95% confidence levels of EC50, activation of kappa receptors
# Chain of kappa opioid receptor (P41145 whole entry): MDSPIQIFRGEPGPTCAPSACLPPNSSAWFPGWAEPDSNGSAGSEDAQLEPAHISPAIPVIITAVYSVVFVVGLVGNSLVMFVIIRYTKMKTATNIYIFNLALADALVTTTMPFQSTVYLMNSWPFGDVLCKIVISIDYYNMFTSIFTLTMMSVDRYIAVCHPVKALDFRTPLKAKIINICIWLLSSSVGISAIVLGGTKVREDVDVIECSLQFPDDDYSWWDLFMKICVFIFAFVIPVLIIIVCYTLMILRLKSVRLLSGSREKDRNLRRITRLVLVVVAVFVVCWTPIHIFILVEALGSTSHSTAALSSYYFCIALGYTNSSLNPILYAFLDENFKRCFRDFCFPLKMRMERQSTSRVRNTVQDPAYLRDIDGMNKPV
# Description: Opioid Receptor Activation Assay.
# PathHunter™ Beta-Arrestin GPCR Functional Profiling and Screening cell lines that express the individual opioid receptors were obtained from DiscoveRx (Fremont, Calif.). These cells express the kappa (or mu or delta) opioid receptor fused to a proprietary β-galactosidase enzyme fragment and the […]-arrestin gene fused to an enzyme acceptor (the remaining fragment of β-galactosidase). Upon activation of the receptor, β-arrestin is recruited to the GPCR and the β-galactosidase is activated through enzyme complementation. Cells were grown using standard cell culture techniques and then plated at 30,000 cells/well in 90 μl in a 96 well white, clear bottom plate and incubated overnight. Dilutions were prepared in dilution buffer (HBBS, 20 mMHepes, 0.1% BSA) and 10 μl added per well. Plates were then incubated for 90 min at 37° C. in a water-saturated atmosphere. Plates were then allowed to come to room temp and DiscoveRx's proprietary developing agent added as recommended by the manufacturer. This agent contains a detergent, 6-O-β-galactopyranosyl-luciferen and luciferase. Plates were then incubated for 1 hr at room temperature before being read on a luminometer. Antagonist studies were performed in an identical manner except after the overnight incubation 10 μl media was removed and replaced with drug or naloxone at the indicated concentration. […] To calculate % maximal luminescence, background was subtracted from the experimental values and this was divided by maximal luminescence and multiplied by 100.
# To confirm this, and to determine their relative activities, we assessed their efficiency using PathHunter™ Beta-Arrestin GPCR Functional Profiling and Screening cell lines from DiscoveRx (Fremont, Calif.) as described in the Materials and Methods section.
# [1] = tested on: central pain (acute thermal stimuli); assay: Hotplate model (Example 1); format: in vivo, rat (male Sprague-Dawley); settings: morphine at 5 mg/kg
# Experimental: The hotplate model evaluates central pain attenuation in a rodent after applying an acute thermal stimuli. The rat is treated with compound and assessed over time on a hotplate analgesia meter (Columbus Instruments, Columbus, Ohio), essentially a flat surface maintained at 53.0+/−0.2° C. The time until the rat lifts, nibbles or shakes one of its hind paws is recorded, which is known as the response latency. Animals remain on the hotplate no longer than 30 sec to avoid tissue damage. Experiments are scored as the percent of maximal possible effect (% MPE) calculated using the following equation: % MPE=[(post-drug latency−pre-drug latency)/(cut-off pre-drug latency)]×100%. The dose response curves and EC50 values were generated using GraphPad Prism®.
# As discussed, central availability of a kappa agonist can lead to undesirable side effects. To assess the peripheral to central selectivity of compound 9 an i.v. dose response of this drug was performed in both a model of peripheral pain (A. the writhing assay) and central pain (B. the hotplate assay). The ratio of EC50s for each of these assays can then be used to determine the peripheral selectivity of the drug.
# [2] = tested on: central pain (acute thermal stimuli); assay: Hot plate model (Example 2); format: in vivo, rat; settings: JT compounds 20 mg/kg oral; morphine 10 mg/kg i.p.
# Experimental: The hotplate model evaluates central pain attenuation in a rodent after applying an acute thermal stimuli. Experimental rats were orally gavaged with lead compounds JT07 or JT09 (20 mg/kg) and rested for 20 min prior to being placed on the hotplate. Control rats received i.p. injections of morphine (10 mg/kg) and rested for 20 min prior to be being placed on the hotplate. Rats were then assessed over time on a hotplate analgesia meter (Columbus Instruments, Columbus, Ohio), essentially a flat surface maintained at 53.0+/−0.2° C. The time until the rat lifted, nibbled, or shook one of its hind paws was recorded, which is known as the response latency. Animals remained on the hotplate no longer that 30 sec to avoid tissue damage. Experiments were scored as the percent of maximal possible effect (% MPE) calculated using the following equation: % MPE=[(post-drug latency−pre-drug latency)/(cut-off pre-drug latency)]×100%. The dose response curves and EC50 values were generated using GraphPad Prism.
# As an initial screen for analgesic activity, JT07 and JT09 were evaluated in the hotplate analgesic model using a standard oral dose of 20 mg/kg. Percent maximum possible effect was analyzed for each compound and compared to morphine (10 mg/kg, i.p.).
# [3] = tested on: sedation (distance traveled); assay: Locomotor open field test; settings: JT09 20 mg/kg p.o.; morphine 10 mg/kg i.p.
# Experimental: Locomotor Open Field Test.
# Sedation and a loss of muscle coordination are common CNS-mediated side effects of opioids. To assess the sedative effects of JT09, rats were given JT09 (20 mg/kg, p.o.) or morphine (10 mg/kg, i.p.) 20 min before placement in an automated (68 l×21 w×21 h cm) activity chambers for a 30 min test. Morphine was used as a comparison group due to its well-known sedative effects.
# [4] = tested on: peripheral pain (acetic acid-induced writhing); assay: Acetic acid-induced writhing model (Example 1); format: in vivo, rat (male Sprague-Dawley); settings: oral gavage, screening dose 20 mg/kg, 20 min before i.p. 3% acetic acid; Student's t-test p<0.05
# Experimental: Acetic Acid-Induced Writhing Model.
# This protocol is a well-established model of peripheral pain. Following oral or i.v. administration of compound, rats are rested for 20 min before i.p. injection with 2 ml/kg of 3% acetic acid. Animals are then rested an additional 10 min before being placed in a 10×10 inch chamber. A video of the rats is then recorded for next 20 min. The video is subsequently blindly scored by an investigator who examines each rat every 20 sec for the entire 20 min (60 individual observations). At each observation rats are scored on whether they are writhing or not. Writhing is defined as a constriction of the abdominal area, often with extension of the hind legs. At the end of the experiment the percent of the time the animal was writhing was calculated. The dose-response curves and EC50 values were generated using GraphPad Prism®.
# As an initial biological screen the potential for oral availability of the 18 peptides in our library were evaluated in a well-established model of peripheral pain, the acetic acid-induced writhing assay. Rats were administered the various compounds by oral gavage at a screening dose of 20 mg/kg 20 min before i.p. injection with 2 ml/kg of 3% acetic acid. 10 min later animals were assessed for writhing as indicated in the methods section. […] Thus, several of the Arg modifications can impart CR665 with the ability to cross the gut barrier. Compounds 3, 7, 9, 11 and 17 were selected for further analysis.
# [5] = tested on: abuse liability (lever pressing for intravenous drug delivery); assay: Self-administration model; format: in vivo, rat; settings: cocaine 50 ug/50 ul bolus infusion, 7 days, after replacing JT09
# Description: Self-Administration Model.
# Addiction/dependence is a critical side effect of opioids and must be evaluated with any new member of this family. The most reliable test of abuse liability with the most translational relevance is a contingent drug self-administration model, in which rats are trained to press a lever for intravenous drug delivery. Sixteen standard self-administration chambers (30×20×20 cm, Med Associates) were housed inside sound-attenuating cubicles fitted with a fan for airflow and to mask noise. Each chamber contained two retractable levers, two stimulus lights, a speaker for tone delivery, and a house light to provide general illumination. In addition, each chamber was equipped with a balanced metal arm and spring leash attached to a swivel (Instech). Tygon® tubing extended through the leash and was connected to a 10 ml syringe mounted on an infusion pump located outside the sound-attenuating cubicle. Rats were anesthetized with i.p. injections of ketamine (66 mg/kg; Vedcolnc, St Joseph, Mo., USA), xylazine (1.3 mg/kg; Lloyd Laboratories, Shenandoah, Iowa, USA), and equithesin (0.5 ml/kg); sodium pentobarbital (4 mg/kg), chloral hydrate (17 mg/kg), and 21.3 mg/kg magnesium sulfate heptahydrate dissolved in 44% propylene glycol, 10% ethanol solution). Ketorolac (2.0 mg/kg, i.p. Sigma, St. Louis, Mo., USA) was given just prior to surgery as an analgesic. One end of a silastic catheter was inserted 33 mm into the external right jugular and secured with 4.0 silk sutures. The other end ran subcutaneously and exited from a small incision just below the scapula. This end is attached to an infusion harness (Instech Solomon, Plymouth Meeting, Pa., USA) that provides access to an external port for IV drug delivery. […]
# During self-administration, rats received an IV infusion (0.1 ml) of 10 U/ml heparinized saline before each session. […] Cocaine was chosen for comparison purposes because it is readily self-administered.
Compound,"EC50, activation of kappa opioid receptor (kappa opioid receptor)",EC50 (kappa opioid receptor) [nM],other results
CCCC[C@@H](NC(=O)[C@@H](Cc1ccccc1)NC(=O)[C@H](N)Cc1ccccc1)C(=O)N[C@H](CCC[N+](C)(C)C)C(=O)NCc1ccncc1 [Compound 17],low nM range,47.2 to 166,–
CCCC[C@@H](NC(=O)[C@@H](Cc1ccccc1)NC(=O)[C@H](N)Cc1ccccc1)C(=O)N[C@H](CCCCNCc1ccccc1)C(=O)NCc1ccncc1 [Compound 11],low nM range,8.15 to 26.8,–
CCCCNC(=N)NCCC[C@@H](NC(=O)[C@@H](CCCC)NC(=O)[C@@H](Cc1ccccc1)NC(=O)[C@H](N)Cc1ccccc1)C(=O)NCc1ccncc1 [Compound 3],low nM range,1.38 to 18.7,–
CN1CC[C@]23c4c5ccc(O)c4O[C@H]2[C@@H](O)C=C[C@H]3[C@H]1C5 [morphine],–,–,time of maximum response in hotplate assay [1]: 15 min; analgesic activity in hotplate model (% maximum possible effect) [2]: potent analgesic; sedation in locomotor test [3]: highly sedative
"CCCC[C@@H](NC(=O)[C@@H](Cc1ccccc1)NC(=O)[C@H](N)Cc1ccccc1)C(=O)N[C@H](CCCNC(=N)N)C(=O)NCc1ccncc1 [CR665, D-Phe-D-Phe-D-Nle-D-Arg-NH-4-Picolyl, reference compound] (H-[dF][dF][dNle][dR]-{NH(4-picolyl)})",low nM range,9.07 to 13.1,effect on writhing (outward physical signs of peripheral pain) versus saline control [4]: did not have a significant effect
"COC(=O)[C@H]1[C@@H](OC(=O)c2ccccc2)C[C@@H]2CC[C@H]1N2C [cocaine, reference compound]",–,–,number of cocaine infusions (nose-poke) [5]: increased over the 7 days
CCCC[C@@H](NC(=O)[C@@H](Cc1ccccc1)NC(=O)[C@H](N)Cc1ccccc1)C(=O)N[C@H](CCCCNC1CCCCC1)C(=O)NCc1ccncc1 [Compound 7],low nM range,5.63 to 13.1,–
